Test results from patent US20130197085A1, “AGENT AND METHOD FOR STABILIZING MEMBRANE PROTEIN” (priority 2007, published 2013).

Legend:
Assay type in all cases: cell-based
[1] = tested on: intrinsic dipeptidyl peptidase IV (DPPIV); experiment: Cell surface biotinylation method, expression on the surface of MDCKII cells; settings: 1 mM, 24 hours
Method: (§1) MDCKII cells were dispersed on a 6-well plate, resulting in a density of 2.5×10^5 cells/well. After completion of the culture for 24 hours, the confluent cells were infected with recombinant adenoviruses having the cDNAs of wild-type, E297G and D482G BSEPs, and GFP, at 200 MOI. After completion of the infection, the cells were cultured for 24 hours. […] After completion of the treatment for 24 hours, the cells were biotinylated (see Hayashi et al., Hepatology, 41: 916-924, 2005).

D482G BSEP [2] = target: T1, D482G BSEP (Homo sapiens, UniProt O95342, D482G/L339V); experiment: as above; settings: 1 mM, 24 hours
T1 construct: expressed in transfected cells; host or cells: MDCKII cells infected with recombinant adenovirus
T1 sequence (O95342 whole entry L339V/D482G): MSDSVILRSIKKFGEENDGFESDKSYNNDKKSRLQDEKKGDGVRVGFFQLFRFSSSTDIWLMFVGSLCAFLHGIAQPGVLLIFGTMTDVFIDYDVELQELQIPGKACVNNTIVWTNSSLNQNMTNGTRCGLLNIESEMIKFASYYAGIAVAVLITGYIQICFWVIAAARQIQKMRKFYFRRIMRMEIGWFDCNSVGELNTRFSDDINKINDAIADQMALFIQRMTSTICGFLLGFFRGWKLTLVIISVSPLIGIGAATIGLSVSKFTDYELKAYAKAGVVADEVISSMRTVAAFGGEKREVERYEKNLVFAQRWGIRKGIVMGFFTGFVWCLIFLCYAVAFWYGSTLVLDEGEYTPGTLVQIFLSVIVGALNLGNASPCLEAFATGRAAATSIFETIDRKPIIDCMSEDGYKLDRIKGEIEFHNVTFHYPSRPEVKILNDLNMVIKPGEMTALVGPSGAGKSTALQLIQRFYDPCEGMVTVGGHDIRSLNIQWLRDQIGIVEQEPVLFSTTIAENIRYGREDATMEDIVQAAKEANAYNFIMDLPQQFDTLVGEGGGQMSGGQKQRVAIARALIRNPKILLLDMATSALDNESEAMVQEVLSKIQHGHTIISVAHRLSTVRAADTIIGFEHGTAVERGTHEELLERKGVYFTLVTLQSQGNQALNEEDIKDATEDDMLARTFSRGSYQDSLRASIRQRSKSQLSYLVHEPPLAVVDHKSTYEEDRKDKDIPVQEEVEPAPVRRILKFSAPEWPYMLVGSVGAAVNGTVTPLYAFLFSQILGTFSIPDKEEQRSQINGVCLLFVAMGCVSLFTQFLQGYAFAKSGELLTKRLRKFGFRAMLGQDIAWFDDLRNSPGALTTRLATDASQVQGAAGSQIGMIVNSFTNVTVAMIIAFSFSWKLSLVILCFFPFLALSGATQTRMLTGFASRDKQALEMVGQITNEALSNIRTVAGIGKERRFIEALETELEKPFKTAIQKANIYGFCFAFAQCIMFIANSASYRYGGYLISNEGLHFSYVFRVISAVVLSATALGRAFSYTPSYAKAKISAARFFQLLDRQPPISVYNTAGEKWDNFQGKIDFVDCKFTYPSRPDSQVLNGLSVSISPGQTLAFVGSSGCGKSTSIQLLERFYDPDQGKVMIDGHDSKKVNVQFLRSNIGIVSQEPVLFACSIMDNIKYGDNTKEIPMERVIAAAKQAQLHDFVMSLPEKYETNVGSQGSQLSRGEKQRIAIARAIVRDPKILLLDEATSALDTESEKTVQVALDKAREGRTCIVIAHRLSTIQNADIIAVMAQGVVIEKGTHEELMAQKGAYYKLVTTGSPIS
Method: as §1

wild-type BSEP [3] = target: T2, wild-type BSEP (Homo sapiens, UniProt O95342, L339V); experiment: as above; settings: 1 mM, 24 hours
T2 construct: expressed in transfected cells; host or cells: MDCKII cells infected with recombinant adenovirus
T2 sequence (O95342 whole entry L339V): as the sequence (O95342 whole entry L339V/D482G) above, with G482D counted along it
Method: as §1

E297G BSEP [4] = target: T3, E297G BSEP (Homo sapiens, UniProt O95342, E297G/L339V); experiment: as above; settings: 1 mM, 24 hours
T3 construct: expressed in transfected cells; host or cells: MDCKII cells infected with recombinant adenovirus
T3 sequence (O95342 whole entry E297G/L339V): as the sequence (O95342 whole entry L339V/D482G) above, with E297G, G482D counted along it
Method: as §1

D482G BSEP [5] = target: T1, D482G BSEP; experiment: Transcellular transport assay of [^3H] TC across MDCKII monolayer; settings: 24 hours
Method: (§2) MDCKII cells were dispersed on a Transwell membrane insert (pore size: […]; Falcon) of a 24-well plate, resulting in a density of 1.5×10^5 cells/insert. Two days after the culture, the confluent cells were infected with recombinant adenoviruses having the cDNAs of wild-type, E297G and D482G BSEPs, and GFP, at 50 MOI. […] After completion of the treatment for 24 hours, a transcellular transport assay was carried out (see Mita et al., Am J Physiol Gastrointest Liver Physiol 290: G550-G556, 2006).
(§3) The apparent efflux clearance across the apical membrane (PSapical) was calculated by dividing a steady rate of the transcellular transport of [^3H] TC for 2 hours by the intracellular concentration of the [^3H] TC at the termination of the experiment (2 hours later).

wild-type BSEP [6] = target: T2, wild-type BSEP; experiment: as above; settings: 24 hours
Method: as §2, §3

E297G BSEP [7] = target: T3, E297G BSEP; experiment: as above; settings: 24 hours
Method: as §2, §3

[8] = tested on: MDCKII cells expressing GFP; experiment: Transcellular transport assay of [^3H] TC across MDCKII monolayer, GFP control cells; settings: 24 hours
Method: as §2, §3

[9] = 1 mM, PSapical minus PSapical of GFP cells

O=C(O)CCCc1ccccc1 [4PBA, 4-phenylbutyric acid]
expression of intrinsic DPPIV [1]: not influenced
expression level on the cell surface, increase (D482G BSEP [2]): 2.6 times
expression level on the cell surface, increase (wild-type BSEP [3]): 1.8 times
expression level on the cell surface, increase (E297G BSEP [4]): 3.1 times
efflux of [^3H] TC from the apical side to the base side (D482G BSEP [5]; 1 mM, MDCKII monolayer): did not influence
efflux of [^3H] TC from the base side to the apical side, increase (D482G BSEP [5]; 1 mM, MDCKII monolayer): 3 times
BSEP-dependent PSapical value (PSapical, BSEP), increase (D482G BSEP [5]; [9]): 2.8 times
PSapical value (D482G BSEP [5]; 4PBA treatment 1 mM): increased
efflux of [^3H] TC from the apical side to the base side (wild-type BSEP [6]; 1 mM, MDCKII monolayer): did not influence
efflux of [^3H] TC from the base side to the apical side, increase (wild-type BSEP [6]; 1 mM, MDCKII monolayer): 1.5 times
BSEP-dependent PSapical value (PSapical, BSEP), increase (wild-type BSEP [6]; [9]): 1.7 times
PSapical value (wild-type BSEP [6]; 4PBA treatment 1 mM): increased
efflux of [^3H] TC from the apical side to the base side (E297G BSEP [7]; 1 mM, MDCKII monolayer): did not influence
efflux of [^3H] TC from the base side to the apical side, increase (E297G BSEP [7]; 1 mM, MDCKII monolayer): 2.5 times
BSEP-dependent PSapical value (PSapical, BSEP), increase (E297G BSEP [7]; [9]): 3.0 times
PSapical value (E297G BSEP [7]; 4PBA treatment 1 mM): increased
efflux of [^3H] TC from the apical side to the base side ([8]; 1 mM): did not influence
efflux of [^3H] TC from the base side to the apical side ([8]; 1 mM): such effects were not observed
PSapical value ([8]; 4PBA treatment 1 mM): no changes
